Measured values as given in patent publication US5482967A, “Condensed heterocyclic compounds, their production and use” (Takeda Chemical Industries, Ltd., priority 1992, dated 1996).

molecular target: substance P receptor (Homo sapiens, UniProt P25103); assay: Radioligand receptor binding inhibitory assay using receptor from human lymphoblast cells (IM-9), 125I-BHSP; conditions: IM-9 receptor, 25° C., 30 minutes
Description: The method of A. Margaret et al. [Molecular Pharmacology 42, 458 (1992)] was modified and used. The receptor was prepared from human lymphoblast cells (IM-9). IM-9 cells were grown in 175 cm^2 tissue culture flasks (100 ml×10) at a density approximately 2×10^5 /ml of RPMI 1640 with L-glutamine, 10% (V/V) heat inactivated fetal calf serum, penicillin (100 u/ml), and streptomycin (100 μg/ml) at 37° C. in 5% CO2 /95% air for 3 days. IM-9 cells were obtained by centrifugation at 500×g for 5 minutes at 5° C. The pellet obtained was washed once with phosphate buffer (Flow Laboratories, CAT No. 28-103-05), homogenized using Polytron homogenizer (Kinematika, Germany) in 30 ml of 50 mM Tris-HCl buffer containing 120 mM NaCl, 5 mM KCl, 2 μg/ml phenylmethyl sulfonyl fluoride, and 1 mM ethylenediamine tetra-acetic acid and then centrifuged at 40,000×g for 20 minutes. The residue was washed twice with 30 ml of buffer described above, and preserved frozen (-80° C.).
The above specimen was suspended in a reaction buffer (50 mM Tris-HCl buffer (pH 7.4), 0.02% bovine serum albumin, 1 mM phenylmethylsulfonyl fluoride, 2 μg/ml chymostatin, 40 μg/ml bacitracin, 3 mM manganese chloride) at a protein concentration of 1.5 mg/ml and a 100 μl portion of the suspension was used in the reaction. After addition of the sample and 125I-BHSP (0.46 KBq), the reaction was conducted in 0.2 ml of reaction buffer at 25° C. for 30 minutes. The amount of nonspecific binding was determined by adding substance P at a final concentration of 2×10^-6 M. After the reaction, using a cell harvester (290PHD, Cambridge Technology, Inc., England), rapid filtration was carried out through a glass filter (GF/B, Whatman, U.S.A.) to stop the reaction. After washing three times with 250 μl of 50 mM Tris-HCl buffer (pH 7.4) containing 0.02% bovine serum albumin, the radioactivity remaining on the filter was measured with a gamma counter. Before use, the filter was immersed in 0.1% polyethyleneimine for 24 hours and air-dried.

Sequence of substance P receptor (P25103 whole entry): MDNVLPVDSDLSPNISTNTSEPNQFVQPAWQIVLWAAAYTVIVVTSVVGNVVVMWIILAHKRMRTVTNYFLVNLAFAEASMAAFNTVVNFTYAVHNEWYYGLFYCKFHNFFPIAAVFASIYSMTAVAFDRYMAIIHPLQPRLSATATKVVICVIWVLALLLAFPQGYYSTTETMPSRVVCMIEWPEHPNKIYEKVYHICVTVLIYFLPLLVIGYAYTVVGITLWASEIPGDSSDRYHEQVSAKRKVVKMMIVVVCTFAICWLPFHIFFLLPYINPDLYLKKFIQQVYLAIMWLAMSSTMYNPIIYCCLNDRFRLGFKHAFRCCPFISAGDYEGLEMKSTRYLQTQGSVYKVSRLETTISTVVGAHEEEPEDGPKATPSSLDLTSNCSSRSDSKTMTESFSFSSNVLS

First: O=C1c2c(-c3ccccc3)c3ccccc3c(=O)n2CCN1Cc1cc(C(F)(F)F)cc(C(F)(F)F)c1 [Example 240, N-[3,5-Bis(trifluoromethyl)benzyl]-1,2,3,4-tetrahydro-1,6-dioxo-11-phenyl-6H-pyrazino[1,2-b]isoquinoline]
Second: CN(Cc1cc(C(F)(F)F)cc(C(F)(F)F)c1)C(=O)c1oc(=O)c2ccccc2c1-c1ccccc1 [Example 243, N-[3,5-Bis(trifluoromethyl)benzyl]-N-methyl-1-oxo-4-phenyl-1H-2-benzopyran-3-carboxamide]
The IC50 of the first is 2.2-fold higher: 2 nM for the first, 0.9 nM for the second. The second is the more potent here.

Going from `CN(Cc1cc(C(F)(F)F)cc(C(F)(F)F)c1)C(=O)c1oc(=O)c2ccc(Cl)cc2c1-c1ccccc1` [Example 242, N-[3,5-Bis(trifluoromethyl)benzyl]-6-chloro-N-methyl-1-oxo-4-phenyl-1H-2-benzopyran-3-carboxamide] to `Cc1ccc2c(=O)oc(C(=O)N(C)Cc3cc(C(F)(F)F)cc(C(F)(F)F)c3)c(-c3ccccc3)c2c1` [Example 247], the IC50 falls from 8.6 nM to 5.2 nM (1.7-fold). The second is the more potent here.

`COc1ccccc1-c1c(C(=O)N(C)Cc2cc(C(F)(F)F)cc(C(F)(F)F)c2)oc(=O)c2ccccc12` [Example 244, N-[3,5-Bis(trifluoromethyl)benzyl]-4-(2-methoxyphenyl)-N-methyl-1-oxo-1H-2-benzopyran-3-carboxamide] and `COc1ccccc1-c1c(C(=O)N(C)Cc2cc(C(F)(F)F)cc(C(F)(F)F)c2)c(=O)oc2ccccc12` [Example 255, N-[3,5-Bis(trifluoromethyl)benzyl]-4-(2-methoxyphenyl)-N-methyl-2-oxo-2H-1-benzopyran-3-carboxamide] are within 1.5-fold of each other in IC50: 1.6 nM for the first, 1.3 nM for the second.

First: O=C(NCc1cc(C(F)(F)F)cc(C(F)(F)F)c1)c1oc(=O)c2ccccc2c1-c1ccc(F)cc1 [Example 245, N-[3,5-Bis(trifluoromethyl)benzyl]-4-(4-fluorophenyl)-1-oxo-1H-2-benzopyran-3-carboxamide]
Second: CN(Cc1cc(C(F)(F)F)cc(C(F)(F)F)c1)C(=O)c1oc(=O)c2ccccc2c1-c1ccc(F)cc1 [Example 246, N-[3,5-Bis(trifluoromethyl)benzyl]-4-(4-fluorophenyl)-N-methyl-1-oxo-1H-2-benzopyran-3-carboxamide]
The IC50 of the first is 97-fold higher: 59 nM for the first, 0.61 nM for the second.

Going from `Cc1ccccc1-c1c(C(=O)N(C)Cc2cc(C(F)(F)F)cc(C(F)(F)F)c2)c(=O)oc2ccc(Cl)cc12` [Example 248] to `COc1ccccc1-c1c(C(=O)N(C)Cc2cc(C(F)(F)F)cc(C(F)(F)F)c2)c(=O)oc2ccc(Cl)cc12` [Example 251, N-[3,5-Bis(trifluoromethyl)benzyl]-6-chloro-4-(2-methoxyphenyl)-N-methyl-2-oxo-2H-1-benzopyran-3-carboxamide], the IC50 rises from 16 nM to 60 nM (3.8-fold).

Compared with `CN(Cc1cc(C(F)(F)F)cc(C(F)(F)F)c1)C(=O)c1c(-c2ccccc2)c2cc(Cl)ccc2oc1=O` [Example 249, N-[3,5-Bis(trifluoromethyl)benzyl]-6-chloro-N-methyl-2-oxo-4-phenyl-2H-1-benzopyran-3-carboxamide], `CN(Cc1cc(C(F)(F)F)cc(C(F)(F)F)c1)C(=O)c1c(-c2ccccc2)c2ccccc2oc1=O` [Example 250, N-[3,5-Bis(trifluoromethyl)benzyl]-N-methyl-2-oxo-4-phenyl-2H-1-benzopyran-3-carboxamide] is 19-fold lower in IC50: 17 nM for the first, 0.9 nM for the second. The second is the more potent here.

First: Cc1ccccc1-c1c(C(=O)N(C)Cc2cc(C(F)(F)F)cc(C(F)(F)F)c2)c(=O)oc2ccccc12 [Example 254, N-[3,5-Bis(trifluoromethyl)benzyl]-N-methyl-4-(2-methylphenyl)-2-oxo-2H-1-benzopyran-3-carboxamide]
Second: CN(Cc1cc(C(F)(F)F)cc(C(F)(F)F)c1)C(=O)c1c(-c2ccccc2C(F)(F)F)c2ccccc2oc1=O [Example 256, N-[3,5-Bis(trifluoromethyl)benzyl]-N-methyl-2-oxo-4-(2trifluoromethylphenyl)-2H-1-benzopyran-3-carboxamide]
The IC50 of the first is 12-fold lower: 0.36 nM for the first, 4.4 nM for the second. The first is the more potent here.

First: CN(Cc1cc(C(F)(F)F)cc(C(F)(F)F)c1)C(=O)c1c(-c2ccccc2)c2ccccc2[nH]c1=O [Example 258, N-[3,5-Bis(trifluoromethyl)benzyl]-1,2-dihydro-N-methyl-2-oxo-4-phenyl-3-quinolinecarboxamide]
Second: CN(Cc1cc(C(F)(F)F)cc(C(F)(F)F)c1)C(=O)c1c(-c2ccccc2)c2ccccc2n(C)c1=O [Example 260, N-[3,5-Bis(trifluoromethyl)benzyl]-1,2-dihydro-N,1-dimethyl-2-oxo-4-phenyl-3-quinolinecarboxamide]
The IC50 of the first is 3.1-fold higher: 3.1 nM for the first, 1 nM for the second. The second is the more potent here.

Going from `Cn1c(=O)c(C(=O)NCc2cc(C(F)(F)F)cc(C(F)(F)F)c2)c(-c2ccccc2Cl)c2ccccc21` [Example 261, N-[3,5-Bis(trifluoromethyl)benzyl]-4-(2-chlorophenyl)-1,2-dihydro-1-methyl-2-oxo-3-quinolinecarboxamide] to `CN(Cc1cc(C(F)(F)F)cc(C(F)(F)F)c1)C(=O)c1c(-c2ccccc2Cl)c2ccccc2n(C)c1=O` [Example 262, N-[3,5-Bis(trifluoromethyl)benzyl]-4-(2-chlorophenyl)-1,2-dihydro-N,1-dimethyl-2-oxo-3-quinolinecarboxamide], the IC50 falls from 63 nM to 2 nM (32-fold). The second is the more potent here.

First: Cc1ccc2c(c1)c(-c1ccccc1Cl)c(C(=O)N(C)Cc1cc(C(F)(F)F)cc(C(F)(F)F)c1)c(=O)n2C [Example 263, N-[3,5-Bis(trifluoromethyl)benzyl]-4-(2-chlorophenyl)-1,2-dihydro-N,1,6-trimethyl-2-oxo-3-quinolinecarboxamide]
Second: Cc1nc2ccccc2c(-c2ccccc2)c1C(=O)N(C)Cc1cc(C(F)(F)F)cc(C(F)(F)F)c1 [Example 267, N-[3,5-Bis(trifluoromethyl)benzyl]-N,2-dimethyl-4-phenyl-3-quinolinecarboxamide]
The IC50 of the first is 68-fold higher: 46 nM for the first, 0.68 nM for the second. The second is the more potent here.

Compared with `CN(Cc1cc(C(F)(F)F)cc(C(F)(F)F)c1)C(=O)c1cnc2ccc(Cl)cc2c1-c1ccccc1` [Example 264, N-[3,5-Bis(trifluoromethyl)benzyl]-6-chloro-N-methyl-4-phenyl-3-quinolinecarboxamide], `CN(Cc1cc(C(F)(F)F)cc(C(F)(F)F)c1)C(=O)c1cnc2ccccc2c1-c1ccccc1` [Example 265, N-[3,5-Bis(trifluoromethyl)benzyl]-N-methyl-4-phenyl-3-quinolinecarboxamide] is 31-fold lower in IC50: 16 nM for the first, 0.52 nM for the second.

Compared with `Cc1nc2ccccc2c(-c2ccccc2)c1C(=O)NCc1cc(C(F)(F)F)cc(C(F)(F)F)c1` [Example 266, N-[3,5-Bis(trifluoromethyl)benzyl]-2-methyl-4-phenyl-3-quinolinecarboxamide], `CN(Cc1cc(C(F)(F)F)cc(C(F)(F)F)c1)C(=O)c1c(Cl)nc2ccccc2c1-c1ccccc1` [Example 269, N-[3,5-Bis(trifluoromethyl)benzyl]-2-chloro-N-methyl-4-phenyl-3-quinolinecarboxamide] is 5.9-fold lower in IC50: 8.2 nM for the first, 1.4 nM for the second.

Compared with `COc1nc2ccccc2c(-c2ccccc2)c1C(=O)N(C)Cc1cc(C(F)(F)F)cc(C(F)(F)F)c1` [Example 270, N-[3,5-Bis(trifluoromethyl)benzyl]-2-methoxy-N-methyl-4-phenyl-3-quinolinecarboxamide], `CNc1nc2ccccc2c(-c2ccccc2)c1C(=O)N(C)Cc1cc(C(F)(F)F)cc(C(F)(F)F)c1` [Example 271, N-[3,5-Bis(trifluoromethyl)benzyl]-N-methyl-2-methylamino-4-phenyl-3-quinolinecarboxamide] is 5.3-fold lower in IC50: 10 nM for the first, 1.9 nM for the second. The second is the more potent here.

Going from `CSc1nc2ccccc2c(-c2ccccc2)c1C(=O)N(C)Cc1cc(C(F)(F)F)cc(C(F)(F)F)c1` [Example 272, N-[3,5-Bis(trifluoromethyl)benzyl]-N-methyl-2-methylthio-4-phenyl-3-quinolinecarboxamide] to `CN(Cc1cc(C(F)(F)F)cc(C(F)(F)F)c1)C(=O)c1nc(Cl)c2ccccc2c1-c1ccccc1` [Example 275, N-[3,5-Bis(trifluoromethyl)benzyl]-1-chloro-N-methyl-4-phenyl-3-isoquinolinecarboxamide], the IC50 falls from 23 nM to 1.9 nM (12-fold). The second is the more potent here.

`CN(Cc1cc(C(F)(F)F)cc(C(F)(F)F)c1)C(=O)c1nc(Cl)c2ccccc2c1-c1ccc(F)cc1` [Example 273, N-[3,5-Bis(trifluoromethyl)benzyl]-1-chloro-4-(4-fluorophenyl)-N-methyl-3-isoquinolinecarboxamide] and `CN(Cc1cc(C(F)(F)F)cc(C(F)(F)F)c1)C(=O)c1ncc2ccccc2c1-c1ccc(F)cc1` [Example 274, N-[3,5-Bis(trifluoromethyl)benzyl]-4-(4-fluorophenyl)-N-methyl-3-isoquinolinecarboxamide] are within 1.5-fold of each other in IC50: 2 nM for the first, 2.3 nM for the second.

In the case of `CN(Cc1cc(C(F)(F)F)cc(C(F)(F)F)c1)C(=O)c1ncc2ccccc2c1-c1ccccc1` [Example 276, N-[3,5-Bis(trifluoromethyl)benzyl]-N-methyl-4-phenyl-3-isoquinolinecarboxamide], the IC50 is reported as 3 nM.
